Laboratory results taken from paper PMC7350133 (Heliyon, 2020).
Where two headings read alike, the source gives them in different places. One block for each compound: values may come before it.

Legend:
alpha glucosidase = conditions: cited from earlier work
[1] = DPPH free radical scavenging assay; conditions: mean ± SD (n = 3)
[2] = ABTS free radical scavenging assay; conditions: mean ± SD (n = 3)
[3] = tested on: yeast alpha glucosidase enzyme; conditions: ref Gong et al., 2017, Peng et al., 2016, Rouzbehan et al.; cited from earlier work

Compound: O=c1c2cc(O)c(O)cc2oc2cc(O)cc(O)c12 [norathyriol]
AGI IC50 (alpha glucosidase; ref Gu et al., 2019): 4.22 ± 0.19 µg/mL

Antioxidant activity (IC50 in μg/mL) DPPH Assay [1]: 5.1 ± 0.1 µg/mL
Antioxidant activity (IC50 in μg/mL) ABTS Assay [2]: 3.9 ± 0.2 µg/mL
Compound: O=C1O[C@H]([C@@H](O)CO)C(O)=C1O [Ascorbic acid]

Compound: C[C@H]1O[C@H](O[C@H]2[C@H](O)[C@@H](O)[C@@H](O[C@H]3[C@H](O)[C@@H](O)C(O)O[C@@H]3CO)O[C@@H]2CO)[C@H](O)[C@@H](O)[C@@H]1N[C@H]1C=C(CO)[C@@H](O)[C@H](O)[C@H]1O (stereo partly shown) [Acarbose, acarbose]
type of inhibition [3]: competitive

Compound: C/C=C(\C)CC/C=C(\C)C(=O)OCC(C)(C)CC1=C(O)C(=O)c2ccccc2C1=O [rhinacanthin C]
AGI IC50 (alpha glucosidase; ref Shah et al., 2017): 22.6 ± 0.6 µg/mL

Compound: O=c1c(O)c(-c2ccc(O)cc2)oc2cc(O)cc(O)c12 [kaempferol]
type of inhibition [3]: mixed type

Compound: COc1ccc([C@@H]2CC(=O)c3c(O)cc(O)cc3O2)cc1O [hesperetin]
type of inhibition [3]: mixed type
